Columns and labels:
[1] = target: T1, eIF2B decamer in eIF2Bα^V183F HEK293T lysate (Homo sapiens, UniProt P49770+Q14232+Q9UI10, V183F); experiment: Sucrose gradient centrifugation, eIF2B complex assembly, eIF2Bα V183F HEK293T lysate; format: biochemical; conditions: 500 nM ISRIB, 200 μM F6P
T1 construct: endogenous in cells
Description: WT or eIF2Bα mutant HEK293T cells were harvested and lysed in 50 mM HEPES, 400 mM KCl, 1 mM DTT, 4 mM Mg(OAc)2, pH 7.5 + 0.5% Triton-X-100 + EDTA-free protease inhibitor cocktail (Roche) on ice for 30 min. Lysates were cleared by centrifugation at 48,000 × g, 4 °C for 30 min. 100 μL of each cleared lysate was loaded onto a 5–20% sucrose gradient prepared in a 13 × 51 mm ultracentrifuge tube using a Gradient Station (Biocomp) and centrifuged in a SW55 Ti rotor at 152,000 × g, 4 °C for 12 h. After centrifugation, 24 × 200 μL fractions were manually collected from the top to bottom of each gradient. Each fraction was subjected to methanol/chloroform precipitation and SDS-PAGE followed by Western Blot with the indicated antibodies. Blots were imaged on a ChemiDoc MP (Bio-Rad), and band intensities were quantified using the instrument’s Image Lab software. Each value was then divided by total intensity obtained across all fractions to determine percent enrichment of each subunit in each fraction.

[2] = target: T2, eIF2Bα^V183F (Homo sapiens, UniProt Q14232, V183F); experiment: Isothermal titration calorimetry, eIF2Bα V183F; format: binding; conditions: ITC
Description: (§1) Interactions between recombinant protein and sugar phosphates were conducted with a MicroCal PEAQ-ITC (Malvern Panalytical Inc.). Experiments were performed in 25 mM HEPES, 150 mM NaCl, pH 7.5 at 20 °C. […] The final titration curves were fitted using MicroCal ITC data analysis software, assuming a single binding site per monomer.
Target sequence in this assay (Q14232 whole entry V183F): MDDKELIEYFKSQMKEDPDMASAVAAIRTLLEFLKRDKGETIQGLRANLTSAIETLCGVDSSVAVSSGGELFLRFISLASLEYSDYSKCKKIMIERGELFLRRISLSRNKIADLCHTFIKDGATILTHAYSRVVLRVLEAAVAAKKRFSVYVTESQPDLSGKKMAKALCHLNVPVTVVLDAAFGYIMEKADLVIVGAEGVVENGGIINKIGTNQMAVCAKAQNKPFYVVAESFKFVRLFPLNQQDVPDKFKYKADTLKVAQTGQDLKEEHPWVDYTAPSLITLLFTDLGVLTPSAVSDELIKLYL

[3] = target: T3, eIF2Bα^E198K (Homo sapiens, UniProt Q14232, E198K); experiment: Isothermal titration calorimetry, eIF2Bα E198K; format: binding; conditions: ITC
T3 sequence (Q14232 1-305 E198K): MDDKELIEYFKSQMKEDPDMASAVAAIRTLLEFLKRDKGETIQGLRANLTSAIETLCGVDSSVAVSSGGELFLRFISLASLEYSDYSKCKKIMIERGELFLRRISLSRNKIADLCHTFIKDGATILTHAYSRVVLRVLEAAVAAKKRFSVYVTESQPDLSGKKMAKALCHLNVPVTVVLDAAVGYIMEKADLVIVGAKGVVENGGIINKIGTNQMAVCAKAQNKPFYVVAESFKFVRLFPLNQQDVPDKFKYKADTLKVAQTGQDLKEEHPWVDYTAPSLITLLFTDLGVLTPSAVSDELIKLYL
Description: as §1

[4] = target: T4, eIF2B (Homo sapiens, UniProt P49770+Q14232+Q9UI10); experiment: eIF2B GEF activity assay, targeted, recombinant wild-type eIF2B; format: biochemical; conditions: dose-response with eIF2B; 95% CI 2.2-5.3 μM; read-out: EC50 of GEF activation (GDP release t1/2)
T4 construct: made in house; host or cells: eIF2Bα: E. coli BL21(DE3)
T4 sequence (Q14232 whole entry): as the sequence (Q14232 whole entry V183F) above, with F183V counted along it
T4 sequence (P49770 whole entry): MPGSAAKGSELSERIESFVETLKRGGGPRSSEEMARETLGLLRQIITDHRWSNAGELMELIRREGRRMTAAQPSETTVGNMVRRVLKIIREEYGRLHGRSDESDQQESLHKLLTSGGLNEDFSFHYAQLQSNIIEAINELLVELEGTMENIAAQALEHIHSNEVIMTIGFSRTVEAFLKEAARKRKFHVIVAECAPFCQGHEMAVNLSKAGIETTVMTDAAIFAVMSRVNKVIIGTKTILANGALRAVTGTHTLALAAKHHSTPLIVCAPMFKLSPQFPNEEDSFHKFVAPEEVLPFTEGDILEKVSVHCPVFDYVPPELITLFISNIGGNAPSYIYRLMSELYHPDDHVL
T4 sequence (Q9UI10 whole entry): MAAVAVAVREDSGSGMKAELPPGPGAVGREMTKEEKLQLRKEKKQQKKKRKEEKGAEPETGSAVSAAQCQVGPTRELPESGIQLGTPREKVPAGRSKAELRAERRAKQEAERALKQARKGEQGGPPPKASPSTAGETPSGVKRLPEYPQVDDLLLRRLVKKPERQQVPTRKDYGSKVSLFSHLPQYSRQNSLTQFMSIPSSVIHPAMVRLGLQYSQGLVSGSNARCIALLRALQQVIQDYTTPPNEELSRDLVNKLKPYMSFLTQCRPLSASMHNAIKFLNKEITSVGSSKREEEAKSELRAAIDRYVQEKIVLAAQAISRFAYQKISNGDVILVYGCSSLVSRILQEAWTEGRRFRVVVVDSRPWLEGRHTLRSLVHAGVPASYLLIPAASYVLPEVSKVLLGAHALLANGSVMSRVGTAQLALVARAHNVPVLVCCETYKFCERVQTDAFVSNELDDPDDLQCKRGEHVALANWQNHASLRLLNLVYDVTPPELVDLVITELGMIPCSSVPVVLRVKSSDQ
T4 sequence (Q9NR50 whole entry partner): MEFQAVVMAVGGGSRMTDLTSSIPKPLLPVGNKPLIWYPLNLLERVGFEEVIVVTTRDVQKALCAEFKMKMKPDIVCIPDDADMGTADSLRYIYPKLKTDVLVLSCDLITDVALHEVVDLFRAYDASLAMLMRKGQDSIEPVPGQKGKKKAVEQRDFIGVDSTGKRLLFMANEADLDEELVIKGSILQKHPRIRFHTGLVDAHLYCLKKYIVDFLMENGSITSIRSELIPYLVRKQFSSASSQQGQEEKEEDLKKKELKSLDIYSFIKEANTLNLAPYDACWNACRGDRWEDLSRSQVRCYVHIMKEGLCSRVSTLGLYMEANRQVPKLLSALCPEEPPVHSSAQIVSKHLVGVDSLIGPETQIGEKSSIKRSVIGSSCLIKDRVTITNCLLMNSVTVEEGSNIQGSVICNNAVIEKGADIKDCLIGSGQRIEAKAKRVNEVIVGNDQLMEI
T4 sequence (Q13144 whole entry partner): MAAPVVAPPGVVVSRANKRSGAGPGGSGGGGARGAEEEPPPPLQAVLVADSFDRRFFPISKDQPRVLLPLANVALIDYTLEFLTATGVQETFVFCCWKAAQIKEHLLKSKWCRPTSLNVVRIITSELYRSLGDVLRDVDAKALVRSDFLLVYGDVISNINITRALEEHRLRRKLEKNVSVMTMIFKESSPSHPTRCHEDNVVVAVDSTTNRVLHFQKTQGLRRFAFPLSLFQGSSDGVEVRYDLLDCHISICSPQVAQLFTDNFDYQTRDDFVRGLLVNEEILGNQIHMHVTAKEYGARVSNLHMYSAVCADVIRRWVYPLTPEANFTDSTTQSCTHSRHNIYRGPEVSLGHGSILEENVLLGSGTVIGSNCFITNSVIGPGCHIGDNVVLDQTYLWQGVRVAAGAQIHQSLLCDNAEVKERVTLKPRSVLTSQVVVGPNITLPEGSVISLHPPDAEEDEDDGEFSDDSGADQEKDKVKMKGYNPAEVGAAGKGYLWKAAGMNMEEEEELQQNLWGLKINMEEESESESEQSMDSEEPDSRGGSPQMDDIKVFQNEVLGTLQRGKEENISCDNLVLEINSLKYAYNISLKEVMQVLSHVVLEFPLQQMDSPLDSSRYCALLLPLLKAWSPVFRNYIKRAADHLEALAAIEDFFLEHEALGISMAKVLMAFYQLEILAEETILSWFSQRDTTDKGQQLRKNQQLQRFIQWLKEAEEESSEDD
Description: (§2) Bodipy-FL-GDP-loaded eIF2 was used as a substrate for recombinant eIF2B. The assay was performed in 384-well plates. Reactions were read on a SpectraMax i3x plate reader (Molecular Devices) using the instrument’s Softmax Pro software with the following parameters: plate temperature = 25 °C; excitation wavelength = 485 nm (15 nm width); emission wavelength = 535 nm (25 nm width); read duration = 30 min at 45 s intervals. Data were analyzed in Prism. GDP release half-lives were calculated by fitting single-exponential decay curves.
(§3) For unbiased screening, MIDAS metabolite libraries at 10 mM stock concentration were dispensed into wells of the assay plate using an Echo Acoustic Liquid Handler (Labcyte). In a final assay volume of 10 μL/well, the following conditions were kept constant: 25 nM Bodipy-FL-GDP-loaded eIF2, 4 nM phospho-eIF2, 0.1 mM GDP, 1 mg/mL BSA, 1 nM eIF2B, 10 μM metabolite. A single well was run for each metabolite. For targeted experiments with recombinant wild-type and mutant eIF2Bα, the following conditions were used: 50 nM Bodipy-FL-GDP-loaded eIF2, 0.1 mM GDP, 1 mg/ml BSA, 20 nM eIF2B. For targeted experiments with HEK293T lysates, the following conditions were used: 50 nM Bodipy-FL-GDP-loaded eIF2, 0.1 mM GDP, 1 mg/ml BSA, 0.1 or 0.3 mg/ml lysates.

[5] = target: T2, eIF2Bα^V183F; experiment: Size-exclusion chromatography of recombinant eIF2Bα V183F, alone or with eIF2B(βδγε); format: biochemical; design: made in house; host or cells: E. coli BL21(DE3); conditions: SEC, recombinant eIF2B(βδγε) + eIF2Bα V183F; 200 μM F6P
Description: Purified proteins were thawed and centrifuged at 20,000 × g, 10 min, 4 °C to remove any potential precipitate. Concentrations of eIF2B(βδγε) and eIF2Bα were normalized to 2 μM and 2.4 μM, respectively. 0.2 mL of each mixture was injected onto a Superose 6 Increase 10/300 column connected to an AKTA Pure 25 FPLC system (GE Healthcare). The system was run at 0.5 mL/min for 1 h using 25 mM HEPES, 200 mM KCl, 2 mM MgCl2, 1 mM DTT, pH 7.5 as the mobile phase. For conditions with ISRIB, the protein samples and mobile phase were supplemented with 500 nM ISRIB. For conditions with F6P, the protein samples and mobile phase were supplemented with 200 μM F6P. UV280 measurements were obtained directly by the instrument.
Target sequence in this assay (Q14232 whole entry V183F): as the sequence (Q14232 whole entry V183F) above
Target sequence in this assay (P49770 whole entry partner): as the sequence (P49770 whole entry) above
Target sequence in this assay (Q9UI10 whole entry partner): as the sequence (Q9UI10 whole entry) above
Target sequence in this assay (Q9NR50 whole entry partner): as the sequence (Q9NR50 whole entry partner) above
Target sequence in this assay (Q13144 whole entry partner): as the sequence (Q13144 whole entry partner) above

[6] = target: T5, eIF2B in WT HEK293T lysate (Homo sapiens, UniProt P49770+Q14232+Q9UI10); experiment: GEF activity assay with WT HEK293T lysate; format: biochemical
T5 construct: endogenous in cells; host or cells: HEK293T (wild type) lysate
T5 sequence (Q14232 whole entry): as the sequence (Q14232 whole entry V183F) above, with F183V counted along it
T5 sequence (P49770 whole entry): as the sequence (P49770 whole entry) above
T5 sequence (Q9UI10 whole entry): as the sequence (Q9UI10 whole entry) above
T5 sequence (Q9NR50 whole entry partner): as the sequence (Q9NR50 whole entry partner) above
T5 sequence (Q13144 whole entry partner): as the sequence (Q13144 whole entry partner) above
Description: as §2, §3

T1 sequence (Q14232 whole entry V183F): as the sequence (Q14232 whole entry V183F) above
T1 sequence (P49770 whole entry): as the sequence (P49770 whole entry) above
T1 sequence (Q9UI10 whole entry): as the sequence (Q9UI10 whole entry) above
T1 sequence (Q9NR50 whole entry partner): as the sequence (Q9NR50 whole entry partner) above
T1 sequence (Q13144 whole entry partner): as the sequence (Q13144 whole entry partner) above

O=C(CO)[C@@H](O)[C@H](O)[C@H](O)COP(=O)(O)O [F6P, fructose-6-phosphate]
eIF2B decamer formation [1]: promoted decamer formation at comparable levels | Kd [2]: 6.3 ± 0.7 µM | Kd ([3]; eIF2Bα E198K): 99 ± 12 µM | reduction of affinity of eIF2Bα E198K ([3]; compared with wild-type eIF2Bα): 11 fold | EC50 [4]: 3.4 µM | eIF2Bα V183F monomer peak [5]: significant reduction of the eIF2Bα^V183F monomer peak | effect on GEF activity of WT lysate [6]: stimulated
